The text below walks through data of patent publication US4921958A, “Piperazinylalkylcarboxylic acid adamantylamides” (American Home Products Corporation, priority 1989, dated 1990).

Test [1] deals with T1, limbic D2 (dopamine) receptor (Rattus norvegicus, UniProt P61169).
T1 construct: from tissue; host or cells: limbic brain tissue
Nature of the test: Inhibition of 3H-spiroperidol binding to limbic brain tissue (D2 receptor affinity; modified Fields et al. and Yamamura et al.). The settings on record: 1 μM test compound. The method, then: The compounds of this invention are antidepressant, anxiolytic agents useful in the treatment of depression and/or anxiety as a singular, primary mental problem as well as secondary, attending problems such as sexual dysfunction. […] The D2 receptor affinity of the compounds of this invention was determined by a modification of the test procedure of Fields et al., Brain Res. 136, 578 (1977) and Yamamura et. al., eds., Neurotransmitter Receptor Binding, Raven Press, N.Y. (1978) as discussed in U.S. No. 4,636,563. The percentage reduction of ^3 H-spiroperidol binding at 1 μM concentration of test compound is reported, infra.

The target in test [2] is T2, 5-HT1A serotonin receptor subtype (Rattus norvegicus, UniProt P19327).
T2 construct: from tissue
T2 sequence (P19327 1-422): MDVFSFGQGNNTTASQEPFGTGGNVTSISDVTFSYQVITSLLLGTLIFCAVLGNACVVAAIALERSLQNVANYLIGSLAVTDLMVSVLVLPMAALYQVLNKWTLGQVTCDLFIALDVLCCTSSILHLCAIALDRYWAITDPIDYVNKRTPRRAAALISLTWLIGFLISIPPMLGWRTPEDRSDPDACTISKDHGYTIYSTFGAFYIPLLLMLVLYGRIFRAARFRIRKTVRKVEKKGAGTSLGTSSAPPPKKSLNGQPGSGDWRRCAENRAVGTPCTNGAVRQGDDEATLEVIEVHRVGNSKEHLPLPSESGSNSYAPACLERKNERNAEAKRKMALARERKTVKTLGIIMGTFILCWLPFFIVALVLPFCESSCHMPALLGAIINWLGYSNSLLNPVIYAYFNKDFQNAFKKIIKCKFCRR
Kind of test: Displacement of 3H-8-OH DPAT from the 5-HT1A serotonin receptor subtype (Hall et al.). In kind it is binding. The settings on record: for inhibition at 1 µM: 1 μM test compound, read-out: % Inhibition at 1 μM (Affinity for 5-HT1A Receptor Sites); for Ki: calculated from appropriate IC50 values, 3H-8-OH DPAT, read-out: Ki (Affinity for 5-HT1A Receptor Sites).
Text: The serotoninergic properties of the compounds of this invention were established by the procedure of Hall et al., J. Neurochem.

The conditions of test [3]: in words, Barone et al., 1986; cited from earlier work.
[4] abbreviates: 3H-spiroperidol, read-out: % Inhibition at 1 μM (Affinity for D2 Receptor Sites).

Read-outs that look alike come from different tables or passages of the source.

T1 sequence (P61169 whole entry): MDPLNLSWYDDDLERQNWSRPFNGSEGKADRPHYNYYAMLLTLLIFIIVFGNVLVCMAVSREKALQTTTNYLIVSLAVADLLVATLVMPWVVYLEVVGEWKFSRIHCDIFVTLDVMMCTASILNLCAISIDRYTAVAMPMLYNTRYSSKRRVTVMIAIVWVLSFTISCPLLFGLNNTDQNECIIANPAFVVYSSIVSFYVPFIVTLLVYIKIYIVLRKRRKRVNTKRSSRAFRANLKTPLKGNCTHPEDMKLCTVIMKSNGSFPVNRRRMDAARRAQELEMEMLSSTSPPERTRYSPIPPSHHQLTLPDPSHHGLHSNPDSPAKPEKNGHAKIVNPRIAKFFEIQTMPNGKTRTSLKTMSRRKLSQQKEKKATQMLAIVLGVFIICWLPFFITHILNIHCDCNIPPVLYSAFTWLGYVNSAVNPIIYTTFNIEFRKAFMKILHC

For orientation: inhibition means the change of the read-out against control, counted positive when it falls. In general, Ki refers to a dissociation constant, usually derived from enzyme kinetics or from competition with a known ligand. With `O=C(CCN1CCN(c2ncccn2)CC1)NC12CC3CC(CC(C3)C1)C2` [Example 1, 4-(2-pyrimidyl)-N-tricyclo[3.3.1.1(3.7)]dec-1-yl-1-piperazinepropanamide], the inhibition at 1 µM is 14% in test [1] (setting [4]) and 79% in test [2] (displacement of 3H-8-OH DPAT). Moreover, the Ki in test [2] was 130 nM.
On to `COc1ccccc1N1CCN(CCC(=O)NC23CC4CC(CC(C4)C2)C3)CC1` [Example 2, 4-(2-methoxyphenyl)-N-tricyclo[3.3.1.1(3,7)]dec-1-yl-1-piperazinepropanamide], for which the inhibition at 1 µM turned out to be 74% in test [1] (setting [4]); 74% in test [1] (limbic brain tissue, read-out: inhibition of 3H-spiroperidol binding to limbic brain tissue); 100% in test [2] (displacement of 3H-8-OH DPAT). The inhibition at 0.1 µM in test [2] (100 nM test compound, displacement of 3H-8-OH DPAT, read-out: % Inhibition at 100 nM (Affinity for 5-HT1A Receptor Sites)) was 86%. Also, the Ki in test [2] was 9 nM.
With `COc1ccccc1N1CCN(CC(C(=O)NC23CC4CC(CC(C4)C2)C3)c2ccccc2)CC1` (stereo not shown) [Example 3, N-(1-Tricyclo[3.3.1.1(3,7)]decyl)-3-[1-[4-(2-methoxyphenyl)piperazinyl]]-2-phenylpropanamide], the Ki in test [2] is 83 nM.
For `Cc1nc2sccn2c(=O)c1CCN1CCC(=C(c2ccc(F)cc2)c2ccc(F)cc2)CC1` [Ritanserin], in test [3], the “clinical efficacy as anxiolytic-antidepressant agents” value is given as “demonstrate clinical efficacy”.
